Test results as given in the NIST ThermoML archive (doi:10.1016/j.tca.2007.09.001).
± gives the expanded uncertainty stated by the source.

Assay: molar heat capacity at constant pressure
Conditions: 101.33 kPa, Crystal, Large sample (1 g) DSC

[Co+3].[Nd+3].[O-2].[O-2].[O-2] [cobalt(III) neodymium(III) oxide]
Conditions | molar heat capacity at constant pressure [J/K/mol]
130 K | 57.2 ± 1.1
140 K | 62.7 ± 1.3
150 K | 67.7 ± 1.4
160 K | 72.3 ± 1.4
170 K | 76.4 ± 1.5
180 K | 80.2 ± 1.6
190 K | 83.5 ± 1.7
200 K | 86.5 ± 1.7
210 K | 89.2 ± 1.8
220 K | 91.6 ± 1.8
230 K | 93.8 ± 1.9
240 K | 95.8 ± 1.9
250 K | 97.8 ± 2
260 K | 98.7 ± 2
270 K | 100.5 ± 2
280 K | 102.3 ± 2
290 K | 104.1 ± 2.1
298.15 K | 105.8 ± 2.1
300 K | 105.9 ± 2.1
325 K | 110.3 ± 2.2
350 K | 116 ± 2.3
375 K | 120.4 ± 2.4
400 K | 122.9 ± 2.5
425 K | 124.8 ± 2.5
450 K | 127.1 ± 2.5
475 K | 130.3 ± 2.6
500 K | 134.5 ± 2.7
525 K | 139.2 ± 2.8
550 K | 144.1 ± 2.9
575 K | 148.3 ± 3
600 K | 151.4 ± 3
625 K | 153.2 ± 3.1
650 K | 153.3 ± 3.1
675 K | 152.1 ± 3
700 K | 149.9 ± 3
725 K | 147.1 ± 2.9
750 K | 144.3 ± 2.9
775 K | 141.9 ± 2.8
800 K | 140.3 ± 2.8
825 K | 139.4 ± 2.8
850 K | 138.5 ± 2.8
